One compound from patent US20020165233A1, “Quinoxaline containing medicaments for post exposure prophylaxis of an HIV infection” (priority 1999, published 2002) can be followed below.

The test system of data set [1] is RT-SHIV. Nature of the data set: Anti-SIV ELISA (humoral response). In kind it is in vivo, rhesus monkeys. The procedure: (§1) Nine rhesus monkeys (male, 2 years old, 2-3 kg) were seronegative for SIV, Simian T cell Leukemia Virus (STLV), B virus and Type D retroviruses. 15 mg/kg body weight of COMPOUND A was subcutaneously administered into animals twice a day (12 h interval) for 28 d. Animals were divided into three groups. All animals were intravenously administered with 100 TCID50 of RT-SHIV The first group consisted of three animals treated with COMPOUND A from 8 h post exposure for 28 d. The second group of animals was treated with COMPOUND A from 24 h post exposure for 28 d. The third group (control) received the solvent that was used to dissolve COMPOUND A (PEG400:glycerol:water=[…]) from 8 h post exposure for 28 d.
1:100 fold diluted plasma was assayed with ELISA plates coated with SIVmac239 virion lysate. Antibody titer was monitored by measuring the absorbance at 492 nm.
(In an ELISA, binding on a coated surface is turned into a signal by an enzyme label.)

The test system of data set [2] is RT-SHIV. Nature of the data set: Cytotoxic lymphocytes (CTL) assay against env and gag-pol. It is filed as in vivo, rhesus monkeys. The following applies: treated animals; all time points tested (3 w to 40 w post exposure).
The test system of data set [3] is RT-SHIV. Nature of the data set: Inhibitory activity on RT-SHIV replication in Herpes Saimiri Virus transformed monkey CD4+ T cells (P27 SIV gag antigen). In kind it is cell-based, chimeric simian-human immunodeficiency virus (SHIV). The method, then:
The virus used in the experiments is a chimeric simian-human immunodeficiency virus (SHIV) that consists of SIVmac239 virus genome with replacement of reverse transcriptase gene (RT) by the corresponding HIV-1 RT gene (Ueberla, K. et al (1995), Medical Sciences 92, […]). RT-SHIV induced AIDS in experimentally infected rhesus monkeys (Ueberla, loc.cit.). Proviral RT-SHIV DNA was prepared by ligation of RT-SHIV5′ and 3′ half of SIVmac239. COS-1 virus stocks were prepared by DNA transfection of proviral DNA. Virus stocks for efficacy experiments were prepared by propagation of COS-1 virus stock in rhesus monkey peripheral blood lymphocytes (PBL). P27 antigen concentration of the virus stocks was determined with a commercial SIV gag antigen ELISA kit (Coulter). The 50% T cell infective dose (TCID50) of the stocks was determined with Herpes Simiri Virus transformed cynomolgus CD4^+ T cells (cyT/HSV).
Inhibitory Activity of COMPOUND A on RT-SHIV Replication in Herpes Saimiri Virus Transformed Monkey CD4^+ T Cells:
3×10^6 of CyT/HSV cells were infected with RT-SHIV stocks containing 10000 TCID50 for 2 h at 37° C., then washed and resuspended in the medium containing serially diluted COMPOUND A (0, 0.1, 0.3, 1, 3, 10, 30, 100, 300, 1000 nM). […] Virus growth was monitored by measuring of P27 SIV gag antigen in culture supernatant with a commercial kit.

The subject of data set [4] is RT-SHIV. Nature of the data set: Plasma viral load (quantitative RNA PCR) after post-exposure prophylaxis. In kind it is in vivo, rhesus monkeys. The procedure: as §1
(§2) Blood was collected from all the animals either just before or 2 h after the drug administration on 0, 3, 7, 10, 14, 21, 29 d post exposure in order to check the drug concentration, otherwise in intervals of 2 to 8 weeks. Biopsy of inguinal lymph nodes was conducted on 17 d or 18 d and 8 weeks post exposure in two animals per group. Cerebrospinal fluid (CSF) was collected from the animals just before biopsy.
Determination of Plasma Viral Load:
Viral RNA was purified from plasma with a commercial viral RNA isolation kit (Boehringer Mannheim). Gag cDNA was PCR amplified with a commercial RNA PCR kit (Boehringer Mannheim) with the gag primers SG05i (5′-ACTGCTGATTCAAAATGCiMCC-3′), SG06i (5′-CTACTGGTCTiCTCCAAAGAGAGAATTG-3′) according to the protocol by Piatak et al. (Biotechniques 14, 70-81-1993) with modifications. Amplified gag DNA was separated by 2% agarose electrophoresis and cyber green stained DNA was analyzed with a fluorescence image analyzer (FLA2000, Fuji Photo Film). Quantitative determination of the viral RNA copy number was calculated using external standards.

On the set-up of data set [5]: species or system rhesus monkeys. To be noted: rhesus monkey, in vivo, sc, 15 mg/kg. The method, then: as §1, §2
Determination of COMPOUND A Concentration in Plasma and CSF:
Blood was collected from all animals just before or 2 h after drug administration to check trough (lowest) or highest blood concentration of the drug. COMPOUND A concentration in CSF was determined by HPLC.

On the set-up of data set [6]: species or system rhesus monkeys. To be noted: rhesus monkey, in vivo, sc, 15 mg/kg. The procedure: as §1
The source holds these as a separate data set.

What is called IC90 is the point of the concentration-response curve where the effect stands at 90%.

Consider `CC[C@H]1C(=O)Nc2ccc(F)cc2N1C(=O)OC(C)C` [Compound A, (3S)-ethyl-6-fluoro-4-isopropyloxycarbonyl-3,4-dihydroquinoxalin-2(1H)-one], for which the “induction of humoral response against RT-SHIV” value in data set [1] (ELISA against SIV virion proteins, untreated sero-positive at 4 weeks) is recorded as “delayed induction of humoral response”. Besides, the treated animals sero-positive entry in data set [1] (at 11 weeks post exp.) is “Two of six”. In data set [1] (late course), the “humoral response of animal #5” value was “eventually lost its humoral response”. The “CTL activity against env and gag-pol” value in data set [2] is “constant high CTL activity”. Besides, the “suppression of RT-SHIV replication” value in data set [3] (10 nM COMPOUND A, Herpes Saimiri Virus transformed monkey CD4+ cells) is reported as “more than 95%”. In addition, in data set [3] (Simian-Human immunodeficiency virus, CD4+ T, in Primates, read-out: IC90 value (RT-SHIV replication)), the IC90 amounted to 8 nM. The “animals with a short active viral replication” value in data set [4] (4 weeks after cessation of treatment) is given as 50 % of the animals. Further, the “viral replication (plasma viral RNA, proviral DNA, infectious cells in PBMC)” value in data set [4] (during the treatment and the following 3 weeks, all treated animals) is “inhibited at a level below the sensitivity of the assays”. Also, the “viral infection in animal #5” value in data set [4] (plasma viral RNA, proviral DNA and QVI methods) was “no viral infection was observed”. In addition, in data set [4] (rhesus macaques), the “duration of immune-system assisted control following exposure” value was “at least 40 weeks”. In data set [4] (subsequent to active replication around 10 weeks, up to 40 weeks post exposure, RNA PCR detection level), the “viral replication (plasma viral RNA level)” value was no more than 1000 copy/ml. In data set [5], the “concentration in cerebral spinal fluid (CSF) relative to blood” value is recorded as “approximately one tenth”, the “minimum level of the drug” value is recorded as “higher than the effective minimal concentration” and the “trough concentration relative to the IC90 value” is listed as 3 fold. The adverse effect result in data set [6] was “without any adverse effect”.
